System: Entamoeba histolytica
Assay: Antiamoebic activity against Entamoeba histolytica HM-1:IMSS
Assay type: functional, organism-based

| Compound | IC50 [µM] |
| --- | --- |
| CC1CN(c2nc3nc4ccccc4nc3s2)N=C1c1cccc(Cl)c1 (stereo unspecified) | 0.72 |
| NC(=S)N1CCC(c2ccccc2)=N1 | 17.2 |
| Cc1ncc([N+](=O)[O-])n1CCO [METRONIDAZOLE] | 1.69 |
| NC(=S)N1CCC(c2cccc(Cl)c2)=N1 | 8.7 |
| CC1CN(C(N)=S)N=C1c1ccccc1 (stereo unspecified) | 10.2 |

Results, then the compound that gave them:

| IC50 [µM] | Compound |
| --- | --- |
| 1.09 | Clc1cccc(C2=NN(c3nc4nc5ccccc5nc4s3)CC2)c1 |
| 2.34 | CC1CN(c2nc3nc4ccccc4nc3s2)N=C1c1ccccc1 (stereo unspecified) |
| 1.45 | CC1CN(c2nc3nc4ccccc4nc3s2)N=C1c1cccc(Br)c1 (stereo unspecified) |
| 4.98 | Brc1cccc(C2=NN(c3nc4nc5ccccc5nc4s3)CC2)c1 |
| 6.76 | c1ccc(C2=NN(c3nc4nc5ccccc5nc4s3)CC2)cc1 |
| 13.2 | NC(=S)N1CCC(c2cccc(Br)c2)=N1 |
